Source: ChEMBL document CHEMBL1125505, “Nucleosides and nucleotides. 112. 2-(1-Hexyn-1-yl)adenosine-5'-uronamides: a new entry of selective A2 adenosine receptor agonists with potent antihypertensive activity” (J Med Chem, 1992)
pKi: −log10 of the molar value.

Experiments:
[1] = target: T1, Adenosine receptor A1 (Rattus norvegicus, UniProt P25099); assay: Binding affinity against adenosine A1 receptor from rat brain membranes using [3H]cyclohexyladenosine as radioligand.
T1 sequence (P25099 whole entry): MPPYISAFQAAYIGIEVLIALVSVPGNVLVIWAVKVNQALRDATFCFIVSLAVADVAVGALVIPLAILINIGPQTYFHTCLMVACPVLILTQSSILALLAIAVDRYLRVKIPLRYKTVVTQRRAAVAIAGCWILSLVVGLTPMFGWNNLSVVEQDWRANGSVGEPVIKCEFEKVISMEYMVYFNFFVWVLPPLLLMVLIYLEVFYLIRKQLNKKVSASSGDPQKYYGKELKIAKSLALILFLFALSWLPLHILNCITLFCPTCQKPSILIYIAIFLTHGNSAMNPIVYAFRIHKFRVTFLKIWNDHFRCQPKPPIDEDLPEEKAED

[2] = target: Adenosine A2 receptor (Rattus norvegicus, UniProt P29276+P30543); assay type: protein assay
[3] = system: Rattus norvegicus; assay: Dose producing 10% decrease in heart rate of anesthetized spontaneously hypertensive rats (SHR's); assay type: functional
[4] = system: Rattus norvegicus; assay: Dose producing 30% decrease in blood pressure of anesthetized spontaneously hypertensive rats (SHR's); assay type: functional

Row | pKi [1] | Ki [2] [µM] | SMILES | ED10 [3] [µg/kg] | ED30 [4] [µg/kg]
1 | < 6.33 | > 0.181 | CCCCC#Cc1nc(N)c2ncn(C3O[C@H](CNC=O)[C@@H](O)[C@H]3O)c2n1 (some centres undefined) | > 100 | > 100
2 | < 6.33 | > 0.181 | CCCCC#Cc1nc(N)c2ncn(C3O[C@H](CNC(=O)NC)[C@@H](O)[C@H]3O)c2n1 (some centres undefined) | > 100 | > 100
3 | 6.93 | 0.0061 | CCCCCCC#Cc1nc(N)c2ncn([C@@H]3O[C@H](CO)[C@@H](O)[C@H]3O)c2n1 | > 100 | 0.35
4 | 5.75 | 0.011 | CCCCC#Cc1nc(N)c2ncn(C3O[C@H](C(=O)NC)[C@@H](O)[C@H]3O)c2n1 (some centres undefined) | > 100 | 0.51
5 | < 6.33 | > 0.181 | CCCCC#Cc1nc(N)c2ncn(C3O[C@H](CNC(C)=O)[C@@H](O)[C@H]3O)c2n1 (some centres undefined) | > 100 | > 100
6 | – | 0.083 | Nc1nc(Nc2ccccc2)nc2c1ncn2[C@@H]1O[C@H](CO)[C@@H](O)[C@H]1O | > 100 | 6.1
7 | 5.71 | 0.169 | CCCCC#Cc1nc(N)c2ncn([C@@H]3O[C@H](C(=O)NCCCC)[C@@H](O)[C@H]3O)c2n1 | > 100 | 26.4
8 | < 6.33 | > 0.181 | CCCCC#Cc1nc(N)c2ncn(C3O[C@H](C/N=C(\S)NC)[C@@H](O)[C@H]3O)c2n1 (some centres undefined) | > 100 | 54.5
9 | 6.99 | – | CCCCC#Cc1nc(N)c2ncn([C@@H]3O[C@H](CO)[C@@H](O)[C@H]3O)c2n1 | 70.4 | 0.11
10 | 6.66 | 0.0052 | CCCCC#Cc1nc(N)c2ncn([C@@H]3O[C@H](CCl)[C@@H](O)[C@H]3O)c2n1 | > 3 | > 3

Continued, compound first:

Row | SMILES | pKi [1] | Ki [2] [µM] | ED10 [3] [µg/kg] | ED30 [4] [µg/kg]
11 | CCCCC#Cc1nc(N)c2ncn([C@@H]3O[C@H](C(=O)NCC)[C@@H](O)[C@H]3O)c2n1 | 6.56 | 0.0048 | > 100 | 0.3
12 | CC(=O)O[C@]1(C(C)=O)CC[C@H]2[C@@H]3C=C(Cl)C4=CC(=O)[C@@H]5C[C@@H]5[C@]4(C)[C@H]3CC[C@@]21C [CYPROTERONE ACETATE] | – | 0.336 | 0.17 | 0.53
13 | CCCCC#Cc1nc(N)c2ncn(C3O[C@H](CNS(C)(=O)=O)[C@@H](O)[C@H]3O)c2n1 (some centres undefined) | < 6.33 | > 0.181 | > 100 | > 100
14 | CCCCC#Cc1nc(N)c2ncn([C@@H]3O[C@H](C(=O)NC4CC4)[C@@H](O)[C@H]3O)c2n1 | 6.87 | 0.0026 | 40.7 | 0.17
15 | CCCCC#Cc1nc(N)c2ncn([C@@H]3O[C@H](C(N)=O)[C@@H](O)[C@H]3O)c2n1 | 5.90 | 0.019 | > 100 | 0.18
16 | CCNC(=O)[C@H]1O[C@@H](n2cnc3c(N)ncnc32)[C@H](O)[C@@H]1O [NECA] | – | – | 0.35 | 0.23
17 | COc1cc(OC)cc(C(CNc2ncnc3c2ncn3[C@@H]2O[C@H](CO)[C@@H](O)[C@H]2O)c2ccccc2C)c1 (some centres undefined) | 7.19 | 0.0046 | > 100 | 12.3
18 | CCCCC#Cc1nc(N)c2ncn(C3O[C@H](C(=O)NCCC)[C@@H](O)[C@H]3O)c2n1 (some centres undefined) | 5.74 | 0.044 | > 100 | 2.88
19 | CCNC(=O)[C@H]1O[C@@H](n2cnc3c(N)nc(NCCc4ccc(CCC(=O)O)cc4)nc32)[C@H](O)[C@@H]1O [CGS-21680] | – | – | > 100 | 0.83
